# Measurements: US20240376148A1, “MEDICAMENT FOR INHIBITING DIETARY OBESITY AND POLYPEPTIDE USED THEREFOR” (INSTITUTE OF ZOOLOGY, CHINESE ACADEMY OF SCIENCES, priority 2022, published 2024)
# Legend:
# [1] = test system: A. muciniphila; experiment: qPCR of abundance of A. muciniphila in intestine of rats; type: in vivo, Sprague Dawley (SD) rats; conditions: figure d of FIG. 7 (rats), p<0.05
# Source text: (§1) FIGS. 7A-7H are a graph showing the effect of using D3 on rats and rhesus monkeys in Example 2 of the present invention. FIG. 7A is the schematic diagram of sampling time point in rats; FIG. 7B is the graph showing the results of the growth rate of body weight with different feeding treatments of the rat; FIG. 7C is the graph showing the results of the short-term feed intake measurement of the rat; FIG. 7D is the graph showing the results of the qPCR detection of the abundance of A. muciniphila in intestine of rats with different feeding treatment; FIG. 7E is a schematic diagram of the sampling time point in rhesus monkeys; FIG. 7F is the graph showing the results of the growth rate of body weight with different feeding treatments of rhesus monkeys; FIG. 7G is the feed intake monitoring graphs of rhesus monkeys with different feeding treatments; FIG. 7H is the graph showing the results of the qPCR detection of the abundance of A. muciniphila in intestine of rhesus monkeys with different feeding treatment. The data shown in the figure are mean±standard deviation, the number of repetitions is 5-10, and the significant difference of each group is analyzed by Wilcoxon test. * representing a significance analysis result of P<0.05, ** representing a significance analysis result of P<0.01.
# Body weights were monitored weekly. […]
# [2] = test system: Guca2b; experiment: Ileum transcriptome sequencing and qPCR gene expression in mice; type: in vivo; conditions: P<0.01
# Method: In order to find the target genes that D3 may act on, the inventors performed ileal transcriptome analysis. Three samples from each group of mice were selected as targets for transcriptome sequencing. Ileal RNA was extracted using the Trizol method and an Agilent 2100 analyser was required to detect the RNA quality above 7 for RNA library construction. After passing the sample test, 2 μg of total RNA was taken from each sample to construct a transcriptome sequencing library. After data acquisition, the RNA-seq data was first de-redundantly removed using Trim galore v0.4.4 to remove junctions and low quality sequences. Using GRCm38 as the mice reference genome, HISAT2 v2.0.5 and StringTie v1.3.4 were used to quantify the abundance of each gene. Differential expression analysis was performed using DESeq2 v1.24.0.
# qPCR gene expression was carried out using the StepOnePlus real-time fluorescent quantitative PCR system. Three technical replicates were performed for each sample, and the identity and purity of the amplified product were checked by analyzing the melting curve at the end of the amplification. Gene expression results were referenced to the percent expression of each gene normalized to glyceraldehyde-3-phosphate dehydrogenase (GAPDH).
# [3] = test system: UGN; experiment: Mice ileum immunofluorescence; type: in vivo
# Method: After the ileum was taken out, it was embedded with OCT and sliced by freezing microtome. Immunofluorescence brief steps: after the sections were washed with PBS for 3 times, 4% paraformaldehyde was added, fixed at room temperature for 10 min, and then washed with PBS for 3 times; 0.5% Triton X-100 was added, permeation at room temperature for 5 min, then washed with PBS 3 times; cell blocking solution was added and blocked at room temperature for 30 min; primary anti-UGN specific antibody (1:200) was added, 4° C. overnight and washed 3 times with PBST; the secondary antibody (1:500) was added, reacted at room temperature for 2 h, washed twice with PBST and washed once with PBS. The cells were stained with […] for additional 10 minutes at 37° C. Cleaned and sealed. Microscopic observation was recorded.
# [4] = test system: A. muciniphila; experiment: qPCR of relative abundance of A. muciniphila in intestinal flora of SPF mice; type: in vivo; conditions: p<0.05
# Method: In order to verify the changes in the relative abundance of A.muciniphila in the intestinal flora of mice fed with other HD, qPCR experiments were performed on the changes of intestinal flora in mice. Faecal bacterial DNA was extracted from the faeces of mice in the NC, HFD, D1, D2, D3, D5, D7, D8, D9 and D10 groups collected in the pre-SPF mice experiments and then the relative abundance of A. muciniphila was determined using qPCR.
# [5] = test system: A. muciniphila; experiment: qPCR of abundance of A. muciniphila in intestine of rhesus monkeys; type: in vivo; conditions: macaque, p<0.05
# Source text: as §1
# Food intake (unit: g/only/week) and body weight were monitored weekly. […]
sequence,measurement,setting,value
RTRYCRTGR [D3],relative abundance of A. muciniphila in the intestine by qPCR,[1],significantly increased
same,expression of UGN (Guca2b) in the ileum,[2]; GF mice,significantly up-regulated
same,expression of UGN (Guca2b) in the ileum,[2]; SPF mice,significantly up-regulated
same,fluorescence intensity of UGN in ileal cells,[3],significantly increased
same,relative abundance of A. muciniphila in the intestinal flora by qPCR,[4],significantly increased
same,relative abundance of A. muciniphila in the intestine by qPCR,[5],significantly increased
